Data as given in PubChem BioAssay AID330 (DTP/NCI, 2004).
“And” between values parts separate entries of the source, which are not always exact repeats. Equal entries are not always repeated. Toxic doses and inconclusive results are not listed.

Test system: P388 leukemia ip, CD2F1 mice, survival T/C
Experiment: NCI In Vivo Anticancer Drug Screen. Data for tumor model P388 Leukemia (intraperitoneal) in CD2F1 (CDF1) mice
Settings: endpoint: median survival time, higher = longer survival
Summary of the method: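 Mice carrying the transplanted tumor received test compound or vehicle. Survival was recorded in each group, and the value is the treated-group measurement divided by that of the vehicle-treated control group.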

[1] = dose: 60.0 mg/kg/injection, schedule: Q01DX005 (ip), vehicle: Klucel (hydroxypropylcellulose) (HPC)
[2] = dose: 120.0 mg/kg/injection, schedule: Q01DX005 (ip), vehicle: Klucel (hydroxypropylcellulose) (HPC)
[3] = dose: 240.0 mg/kg/injection, schedule: Q01DX005 (ip), vehicle: Klucel (hydroxypropylcellulose) (HPC)
[4] = dose: 60.0 mg/kg/injection, schedule: Q01DX005 (ip), vehicle: saline with Tween-80
[5] = dose: 120.0 mg/kg/injection, schedule: Q01DX005 (ip), vehicle: saline with Tween-80
[6] = dose: 240.0 mg/kg/injection, schedule: Q01DX005 (ip), vehicle: saline with Tween-80
[7] = dose: 25.0 mg/kg/injection, schedule: Q01DX009 (ip), vehicle: Klucel (hydroxypropylcellulose) (HPC)
[8] = dose: 50.0 mg/kg/injection, schedule: Q01DX009 (ip), vehicle: Klucel (hydroxypropylcellulose) (HPC)
[9] = dose: 100.0 mg/kg/injection, schedule: Q01DX009 (ip), vehicle: Klucel (hydroxypropylcellulose) (HPC)
[10] = dose: 50.0 mg/kg/injection, schedule: Q01DX005 (ip), vehicle: saline with Tween-80
[11] = dose: 100.0 mg/kg/injection, schedule: Q01DX005 (ip), vehicle: saline with Tween-80
[12] = dose: 200.0 mg/kg/injection, schedule: Q01DX005 (ip), vehicle: saline with Tween-80
[13] = dose: 50.0 mg/kg/injection, schedule: Q01DX005 (ip), vehicle: Klucel (hydroxypropylcellulose) (HPC)
[14] = dose: 100.0 mg/kg/injection, schedule: Q01DX005 (ip), vehicle: Klucel (hydroxypropylcellulose) (HPC)
[15] = dose: 200.0 mg/kg/injection, schedule: Q01DX005 (ip), vehicle: Klucel (hydroxypropylcellulose) (HPC)
[16] = dose: 200.0 mg/kg/injection, schedule: Q01DX009 (ip), vehicle: Klucel (hydroxypropylcellulose) (HPC)

CCCCCCCCCCCCCCCc1cc(O)c(CC=C(C)C)c(=O)o1 (tested in a mixture with another compound)
T/C (dose: 82.5 mg/kg/injection, schedule: Q01DX005 (ip), vehicle: Klucel (hydroxypropylcellulose) (HPC)): 98 % of control | T/C (dose: 165.0 mg/kg/injection, schedule: Q01DX005 (ip), vehicle: Klucel (hydroxypropylcellulose) (HPC)): 97 % of control | T/C (dose: 330.0 mg/kg/injection, schedule: Q01DX005 (ip), vehicle: Klucel (hydroxypropylcellulose) (HPC)): 105 % of control

N#C/C(=C1/Nc2ccccc2NC1=O)c1ccccc1
T/C (dose: 50.0 mg/kg/injection, schedule: Q01DX009 (ip), vehicle: distilled water + Tween-80 + alcohol): 96 % of control | T/C (dose: 100.0 mg/kg/injection, schedule: Q01DX009 (ip), vehicle: distilled water + Tween-80 + alcohol): 92 % of control

c1ccc2c(SCCCCCCCCSc3c4ccccc4nc4ccccc34)c3ccccc3nc2c1
T/C [1]: 101 % of control | T/C [2]: 86 % of control | T/C [3]: 86 % of control

Cc1cccc(C)c1NC(=O)C(=O)C(C#N)c1c(Cl)cccc1Cl (stereo not drawn)
T/C [4]: 102 % of control | T/C [5]: 102 % of control | T/C [6]: 104 % of control

Nc1cc2c(c[n+](CCO)c3ccccc23)c2ccccc12
T/C (dose: 12.5 mg/kg/injection, schedule: Q04DX003 (ip), vehicle: other): 118 % of control | T/C (dose: 25.0 mg/kg/injection, schedule: Q04DX003 (ip), vehicle: other): 111 % of control | T/C (dose: 50.0 mg/kg/injection, schedule: Q04DX003 (ip), vehicle: other): 118 % of control | T/C (dose: 100.0 mg/kg/injection, schedule: Q04DX003 (ip), vehicle: other): 102 % of control

c1ccc2c(CNC3CCCCC3)c[nH]c2c1
T/C [7]: 109 % of control | T/C [8]: 98 % of control | T/C [9]: 96 % of control

COC(=O)C(C)(OCc1ccccc1)C(C)C1CO1 (stereo not drawn)
T/C [10]: 100 % of control | T/C [11]: 115 % of control | T/C [12]: 113 % of control

COCCOC
T/C (dose: 50.0 mg/kg/injection, schedule: Q01DX009 (ip), vehicle: saline): 95 % of control | T/C (dose: 100.0 mg/kg/injection, schedule: Q01DX009 (ip), vehicle: saline): 98 % of control | T/C (dose: 200.0 mg/kg/injection, schedule: Q01DX009 (ip), vehicle: saline): 100 % of control | T/C (dose: 400.0 mg/kg/injection, schedule: Q01DX009 (ip), vehicle: saline): 100 % of control

COC(=O)c1c(C(=O)OC)c(-c2ccccc2)n(CCn2c(-c3ccccc3)c(C(=O)OC)c(C(=O)OC)c2-c2ccccc2)c1-c1ccccc1
T/C [13]: 96 % of control | T/C [14]: 93 % of control | T/C [15]: 95 % of control

Cn1c2ncccc2c(=O)c2c(O)cc3c(c21)C=CC(C)(C)O3
T/C (dose: 12.5 mg/kg/injection, schedule: Q01DX005 (ip), vehicle: Klucel (hydroxypropylcellulose) (HPC)): 100 % of control | T/C (dose: 25.0 mg/kg/injection, schedule: Q01DX005 (ip), vehicle: Klucel (hydroxypropylcellulose) (HPC)): 102 % of control | T/C [13]: 101 % of control and 93 % of control

CC([NH-])C[NH-].O=C(O)CC(=O)O.[Pt+2]
T/C (dose: 25.0 mg/kg/injection, schedule: Q04DX002 (ip), vehicle: saline with Tween-80): 153 % of control and 158 % of control | T/C (dose: 50.0 mg/kg/injection, schedule: Q04DX002 (ip), vehicle: saline with Tween-80): 179 % of control and 183 % of control

O=C(O)C1=CC(c2ccccc2O)=NCCN1
T/C (dose: 15.0 mg/kg/injection, schedule: Q01DX005 (ip), vehicle: saline with Tween-80): 97 % of control and 98 % of control | T/C (dose: 30.0 mg/kg/injection, schedule: Q01DX005 (ip), vehicle: saline with Tween-80): 102 % of control and 105 % of control | T/C [4]: 114 % of control and 97 % of control | T/C [5]: 103 % of control and 107 % of control

NC1=C(c2cccc(Cl)c2)C(=O)CC12C=CC(=O)C=C2
T/C [8]: 100 % of control | T/C [9]: 104 % of control | T/C [16]: 102 % of control

COc1ccc(NC(=O)N(C)C)cc1OC
T/C (dose: 100.0 mg/kg/injection, schedule: Q04DX003 (ip), vehicle: saline): 101 % of control | T/C (dose: 200.0 mg/kg/injection, schedule: Q04DX003 (ip), vehicle: saline): 107 % of control | T/C (dose: 400.0 mg/kg/injection, schedule: Q04DX003 (ip), vehicle: saline): 105 % of control

COc1ccc(-n2c(=O)c(N=Nc3ccc(C)cc3)c(O)n(-c3ccccc3Cl)c2=S)cc1
T/C (dose: 50.0 mg/kg/injection, schedule: Q01DX001 (ip), vehicle: Klucel (hydroxypropylcellulose) (HPC)): 96 % of control | T/C (dose: 100.0 mg/kg/injection, schedule: Q01DX001 (ip), vehicle: Klucel (hydroxypropylcellulose) (HPC)): 99 % of control | T/C (dose: 200.0 mg/kg/injection, schedule: Q01DX001 (ip), vehicle: Klucel (hydroxypropylcellulose) (HPC)): 96 % of control

CCn1c(=O)n(Cc2ccccc2)c(=O)c2ccccc21
T/C [4]: 93 % of control | T/C [5]: 93 % of control | T/C [6]: 91 % of control

CCCCCC1=C/N\C(C#N)=C(C#N)/N=C/C(CCCCC)=C\N\C(C#N)=C(C#N)/N=C\1
T/C (dose: 6.25 mg/kg/injection, schedule: Q01DX009 (ip), vehicle: Klucel (hydroxypropylcellulose) (HPC)): 93 % of control | T/C (dose: 12.5 mg/kg/injection, schedule: Q01DX009 (ip), vehicle: Klucel (hydroxypropylcellulose) (HPC)): 93 % of control | T/C [7]: 93 % of control

CC(=O)OC(C)C(O)C(O)C(/C=C/C1CC=CC(=O)O1)OC(C)=O (stereo not drawn)
T/C (dose: 8.25 mg/kg/injection, schedule: Q01DX005 (ip), vehicle: Klucel (hydroxypropylcellulose) (HPC)): 108 % of control | T/C (dose: 16.5 mg/kg/injection, schedule: Q01DX005 (ip), vehicle: Klucel (hydroxypropylcellulose) (HPC)): 104 % of control | T/C (dose: 33.0 mg/kg/injection, schedule: Q01DX005 (ip), vehicle: Klucel (hydroxypropylcellulose) (HPC)): 104 % of control | T/C (dose: 66.0 mg/kg/injection, schedule: Q01DX005 (ip), vehicle: Klucel (hydroxypropylcellulose) (HPC)): 95 % of control

Nc1cc2c(cc1O)C1C(C3C2C2(Cl)C(Cl)C(Cl)C3(Cl)C2(Cl)Cl)C2(Cl)C(Cl)C(Cl)C1(Cl)C2(Cl)Cl (stereo not drawn)
T/C [8]: 100 % of control | T/C [9]: 100 % of control | T/C [16]: 96 % of control

CN1CC(C(=O)NC2(C)OC3(O)C4CCCN4C(=O)C(Cc4ccccc4)N3C2=O)C=C2c3cccc4[nH]cc(c34)CC21 (stereo not drawn)
T/C [13]: 91 % of control | T/C [14]: 87 % of control | T/C [15]: 102 % of control

O=C1C2=C(Nc3cc(Cl)ccc3N2)OC1c1ccc2c(c1)OCO2 (stereo not drawn)
T/C [1]: 101 % of control | T/C [2]: 98 % of control | T/C [3]: 101 % of control

CC1=C(C)CN(CCc2c[nH]c3ccccc23)C(C#N)C1 (stereo not drawn)
T/C (dose: 12.5 mg/kg/injection, schedule: Q01DX005 (ip), vehicle: saline with Tween-80): 102 % of control | T/C (dose: 25.0 mg/kg/injection, schedule: Q01DX005 (ip), vehicle: saline with Tween-80): 108 % of control | T/C [10]: 102 % of control and 117 % of control

CC(C)(C)C1CS1 (stereo not drawn)
T/C [10]: 107 % of control | T/C [11]: 107 % of control | T/C [12]: 117 % of control

N#Cc1ccc(C(=O)C=C(C(F)(F)F)C(F)(F)F)cc1
T/C (dose: 3.13 mg/kg/injection, schedule: Q01DX009 (ip), vehicle: other): 115 % of control | T/C (dose: 5.56 mg/kg/injection, schedule: Q01DX009 (ip), vehicle: other): 120 % of control

Cc1[nH]nc2c1NC(=O)OC2
T/C [10]: 104 % of control | T/C [11]: 104 % of control | T/C [12]: 106 % of control

CCN1CC2(OC(=O)c3ccccc3NC(C)=O)CCC(OC)C34C1C(CC23)C1(O)CC(OC)C2CC4C1(O)C2OC (stereo not drawn)
T/C (dose: 4.0 mg/kg/injection, schedule: Q01DX009 (ip), vehicle: Klucel (hydroxypropylcellulose) (HPC)): 92 % of control | T/C (dose: 8.0 mg/kg/injection, schedule: Q01DX009 (ip), vehicle: Klucel (hydroxypropylcellulose) (HPC)): 94 % of control | T/C (dose: 16.0 mg/kg/injection, schedule: Q01DX009 (ip), vehicle: Klucel (hydroxypropylcellulose) (HPC)): 97 % of control | T/C (dose: 32.0 mg/kg/injection, schedule: Q01DX009 (ip), vehicle: Klucel (hydroxypropylcellulose) (HPC)): 91 % of control

OCC1CC2C3CC(CO)C(C3)C2C1 (stereo not drawn)
T/C [4]: 105 % of control | T/C [5]: 100 % of control | T/C [6]: 98 % of control

CC1C2(c3ccccc3)C(C(=O)c3ccccc3)NC(c3ccccc3)C12c1ccccc1 (stereo not drawn)
T/C [10]: 87 % of control | T/C [11]: 87 % of control

O=C(CN1CCC(O)(c2ccc(F)cc2)CC1)N1CCN(C/C=C/c2ccccc2)CC1
T/C [1]: 96 % of control | T/C [2]: 95 % of control | T/C [3]: 95 % of control
